We go through 42 compounds from patent US8143259B2, “Cold menthol receptor antagonists” (Janssen Pharmaceutica, NV, priority 2008, dated 2012).

For the experiment, the target named is T1, canine TRPM8 (Canis lupus familiaris, UniProt Q1A7N1).
T1 construct: expressed in transfected cells
Kind of experiment: In Vitro Canine TRPM8 Functional Assay (Ca2+ fluorescence, icilin activation). In kind it is cell-based. The note with it: for % Inh @ 0.5 μM: 0.5 μM compound; for IC50: HEK293 cells stably expressing canine TRPM8, icilin activation, Ca2+ fluorescence; for % Inh @ 0.2 μM: 0.2 μM compound; for inhibition at 0.2 µM: HEK293, 0.2 μM compound. As for the experimental part:
The functional activity of compounds of the formula (I) was determined by measuring changes in intracellular calcium concentration using a Ca^2+-sensitive fluorescent dye. The changes in fluorescent signal were monitored by a fluorescence plate reader, either a FLIPR™ (Molecular Devices) or FDSS (Hamamatsu). Increases in intracellular Ca^2+ concentration were readily detected upon activation with icilin.
HEK293 cells stably expressing canine TRPM8 were routinely grown as monolayers in Dulbecco's minimum essential medium supplemented with 10% FBS, 2 mM L-glutamine, 100 units/mL penicillin, 100 ug/mL streptomycin and 400 μg/mL G418. Cells were maintained in 5% CO2 at 37° C. At 24 hrs prior to assay, cells were seeded in black wall, clear-base poly-D-lysine coated 384-well plates (BD Biosciences, NJ, USA) at a density of 5,000 cells per well in culture medium and grown overnight in 5% CO2 at 37° C. On assay day, growth media was removed and cells were loaded with Calcium 3 Dye (Molecular Devices) for 35 min at 37° C., under 5% CO2 and then for 25 min at room temperature and atmosphere. Subsequently, cells were tested for agonist-induced increases in intracellular Ca^2+ levels using FLIPR™ or FDSS. Cells were challenged with compounds of the formula (I) (at varying concentrations) and intracellular Ca^2+ was measured for 5 min prior to the addition of icilin to all wells to achieve a final concentration that produces approximately an 80% maximal response.
Maximal fluorescence intensity (FI) achieved upon addition of icilin was exported from the FLIPR or FDSS software and further analyzed using GraphPad Prism 3.02 (Graph Pad Software Inc., CA, U.S.A.). Basal FI was subtracted prior to normalizing data to percent of maximal response. Curves were generated using the average of quadruplicate wells for each data point, were analyzed using nonlinear regression of either sigmoidal dose response or sigmoidal dose response (variable slope).

Setting [1] is: canine TRPM8 HEK293, icilin, 0.5 µM.
Setting [2] is: canine TRPM8 HEK293, icilin, 0.2 µM.

Several values for one entry are separate records, joined by “and”; a condition that tells them apart may be missing. Equal values may be shown once.

T1 sequence (Q1A7N1 1-1104): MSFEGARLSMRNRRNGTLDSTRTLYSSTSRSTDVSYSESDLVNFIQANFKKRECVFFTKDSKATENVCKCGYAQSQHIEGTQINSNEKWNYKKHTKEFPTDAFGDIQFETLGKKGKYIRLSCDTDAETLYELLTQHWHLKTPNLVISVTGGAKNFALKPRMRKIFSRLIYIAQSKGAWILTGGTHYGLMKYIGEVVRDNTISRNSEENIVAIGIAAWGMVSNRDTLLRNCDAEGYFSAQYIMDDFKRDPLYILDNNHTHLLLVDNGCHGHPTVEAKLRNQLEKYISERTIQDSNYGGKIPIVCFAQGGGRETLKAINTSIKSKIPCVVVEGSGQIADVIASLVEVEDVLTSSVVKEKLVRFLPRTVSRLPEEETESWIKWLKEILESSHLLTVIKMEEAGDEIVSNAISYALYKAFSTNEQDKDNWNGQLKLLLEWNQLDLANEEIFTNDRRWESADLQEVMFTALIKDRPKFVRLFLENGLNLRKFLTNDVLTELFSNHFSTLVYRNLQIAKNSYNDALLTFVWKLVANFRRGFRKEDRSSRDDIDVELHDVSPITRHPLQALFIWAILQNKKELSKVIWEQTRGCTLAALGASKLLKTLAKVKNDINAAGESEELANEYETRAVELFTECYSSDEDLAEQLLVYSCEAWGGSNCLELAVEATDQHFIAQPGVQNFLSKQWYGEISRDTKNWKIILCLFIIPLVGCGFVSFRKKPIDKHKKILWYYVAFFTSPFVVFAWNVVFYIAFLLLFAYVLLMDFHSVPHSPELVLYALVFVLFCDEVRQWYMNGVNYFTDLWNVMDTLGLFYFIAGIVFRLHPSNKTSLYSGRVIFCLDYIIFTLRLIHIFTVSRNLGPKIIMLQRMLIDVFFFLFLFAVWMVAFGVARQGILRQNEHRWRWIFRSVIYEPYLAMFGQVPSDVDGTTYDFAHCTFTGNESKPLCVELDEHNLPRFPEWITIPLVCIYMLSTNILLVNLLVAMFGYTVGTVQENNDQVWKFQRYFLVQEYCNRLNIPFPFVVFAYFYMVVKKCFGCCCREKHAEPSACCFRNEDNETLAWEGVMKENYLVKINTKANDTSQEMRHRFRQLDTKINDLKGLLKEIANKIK

What is called IC50 is the point on the concentration scale where inhibition reaches its midpoint. Read a low IC50 as greater potency. “1-[2-(2-Chloro-phenyl)-pyrrolidin-1-yl]-3-phenylamino-2-(4-trifluoromethyl-phenyl)-propan-1-one [Cpd 83]”: the IC50 came to 0.248 µM. The “% Inh @ 0.5 μM” value (canine TRPM8 HEK293, icilin) was determined as 96%.

For the compound `CC(C)(C)c1ccc(C(Nc2ccccc2)C(=O)N2CCCC2Cc2ccccc2Cl)cc1` (mixture of isomers) [Cpd 6], the “% Inh @ 1 μM” value (1 μM compound, canine TRPM8 HEK293, icilin) stood at 45.171%.

For `O=C(C(CNc1ccccc1)c1ccc(C(F)(F)F)cc1)N1CCCC1c1ccccc1` (mixture of isomers) [Cpd 94], the IC50 came to 0.162 µM. In addition, under setting [1], the “% Inh @ 0.5 μM” value amounted to 98%.

For `O=C(C(CNc1ccccc1)c1ccc(C(F)(F)F)cc1)N1CCCC1c1ccccc1` (mixture of isomers) [Cpd 95], under setting [1], the “% Inh @ 0.5 μM” value amounted to 67%.

In turn, `O=C(C(Nc1ccccc1F)c1ccc(C(F)(F)F)cc1)N1CCCC1c1ccccc1F` (mixture of isomers) [Cpd 131] came in with an IC50 of 0.0069 µM. The “% Inh @ 0.5 μM” value under setting [1] came out at 103%.

As to `O=C(C(Nc1ccccc1F)c1ccc(C(F)(F)F)cc1)N1CCCC1c1ccccc1F` (mixture of isomers) [Cpd 153], it took 0.044 µM to reach half-maximal inhibition (IC50). Further, the “% Inh @ 0.5 μM” value under setting [1] turned out to be 99.694%.

Broadly, the inhibition is the change of the read-out against control, counted positive when it falls. As for `O=C(C(Nc1ccccc1F)c1ccc(Cl)cc1)N1CCC[C@H]1c1ccccc1F` (mixture of isomers) [Cpd 156], the IC50 was 0.009 µM. Under “HEK293, 0.5 μM compound, canine TRPM8 HEK293, icilin”, the inhibition at 0.5 µM came out at 92%.

As to `Cc1c(C(Cc2ccccc2F)C(=O)N2CCCC2c2ccccc2F)sc2ccccc12` (mixture of isomers) [Cpd 177], for the setting “canine TRPM8 HEK293, icilin”, the “% Inh @ 0.2 μM” value was found to be 63%.

For `O=C(C(Nc1ccccc1F)c1ccc(Br)cc1)N1CCCC1c1ccccc1F` (mixture of isomers) [Cpd 180], the IC50 was 0.009 µM. The “% Inh @ 0.2 μM” value (canine TRPM8 HEK293, icilin) is recorded as 97%.

`CCOC(=O)c1ccc(C(Nc2ccccc2F)C(=O)N2CCC[C@H]2c2ccccc2F)cc1` (mixture of isomers) [Cpd 182]: the IC50 was 0.013 µM. For the same compound, under “canine TRPM8 HEK293, icilin”, the inhibition at 0.2 µM was 102%.

With `O=C(C(Nc1ccccc1F)c1ccc(C(F)(F)F)cc1)N1CCC[C@H]1c1cccc(F)c1` (mixture of isomers) [Cpd 186], the midpoint of inhibition, the IC50, lay at 0.018 µM. Besides, the inhibition at 0.2 µM (canine TRPM8 HEK293, icilin) was found to be 98%.

`COC(=O)c1cccc(C2CCCN2C(=O)C(Nc2ccccc2F)c2ccc(C(F)(F)F)cc2)c1` (mixture of isomers) [Cpd 221] showed an IC50 of 0.022 µM. Besides, the “% Inh @ 0.2 μM” value (canine TRPM8 HEK293, icilin) worked out at 102%.

As for `O=C(O)c1cccc(C2CCCN2C(=O)C(Nc2ccccc2F)c2ccc(C(F)(F)F)cc2)c1` (mixture of isomers) [Cpd 223], the IC50 came out at 0.04 µM. The “% Inh @ 0.2 μM” value (canine TRPM8 HEK293, icilin) is 97%.

`CS(=O)(=O)c1ccc(C(Nc2ccccc2F)C(=O)N2CCCC2c2ccccc2F)cc1` (mixture of isomers) [Cpd 224]: under “canine TRPM8 HEK293, icilin”, the “% Inh @ 0.2 μM” value is reported as 55%.

With `O=C(C(Nc1ccccc1F)c1ccc(Br)cc1)N1[C@H](CO)CC[C@@H]1c1ccccc1` (mixture of isomers) [Cpd 238], half-maximal inhibition (IC50) required 0.112 µM.

Consider `O=C(C(Nc1ccccc1F)c1cc2ccccc2s1)N1CCCC1c1ccccc1F` (mixture of isomers) [Cpd 245], for which it took 0.0026 µM to reach half-maximal inhibition (IC50). Also, under “canine TRPM8 HEK293, icilin”, the “% Inh @ 0.2 μM” value amounted to 98%.

For the compound `CNC(=O)c1ccc(C(Nc2c(F)cccc2F)C(=O)N2CCCC2c2ccccc2F)cc1` (mixture of isomers) [Cpd 265], the “% Inh @ 0.2 μM” value (canine TRPM8 HEK293, icilin) is 15%.

Turning to `O=C(C(Cc1c(F)cccc1F)c1ccc(C(F)(F)F)cc1)N1CCCC1c1cccnc1` (mixture of isomers) [Cpd 268], the “% Inh @ 0.2 μM” value under setting [2] was 13% and 15%.

For `O=C(C(Nc1c(F)cccc1F)c1ccc(Cl)cc1)N1CCCC1c1cccnc1` (mixture of isomers) [Cpd 270], the “% Inh @ 0.2 μM” value (canine TRPM8 HEK293, icilin) is 58%.

For the compound `O=C(C(c1ccc(C(F)(F)F)cc1)N1CCc2ccccc21)N1CCC[C@H]1c1cccnc1` (mixture of isomers) [Cpd 275], the IC50 amounted to 0.021 µM. Also, the inhibition at 0.2 µM (canine TRPM8 HEK293, icilin) amounted to 94%.

As for `O=C(C(Nc1ccccc1F)c1ccc2c(c1)CCO2)N1CCC[C@H]1c1ccccc1F` (mixture of isomers) [Cpd 286], the IC50 is 0.014 µM. In addition, where the note is “canine TRPM8 HEK293, icilin”, the inhibition at 0.2 µM is 96%.

For `O=C(C(Nc1ccccc1F)c1ccc(-c2ccccn2)cc1)N1CCC[C@H]1c1ccccc1F` (mixture of isomers) [Cpd 289], the IC50 is 0.012 µM. In addition, the inhibition at 0.2 µM (canine TRPM8 HEK293, icilin) was determined as 84%.

In the case of `O=C(C(c1ccc(C(F)(F)F)cc1)N1CCCc2ccccc21)N1CCCC1c1ccccc1F` (mixture of isomers) [Cpd 292], under “canine TRPM8 HEK293, icilin”, the “% Inh @ 0.2 μM” value came to 45%.

For `O=C(C(Nc1ccccc1F)c1ccc(-c2cccnc2)cc1)N1CCCC1c1ccccc1F` (mixture of isomers) [Cpd 300], the IC50 was 0.006 µM and 0.008 µM. Also, the “% Inh @ 0.2 μM” value under setting [2] was 101% and 102%.

In turn, `O=C(C(Nc1ccccc1F)c1ccc(-c2ccccc2)nc1)N1CCC[C@H]1c1ccccc1F` (mixture of isomers) [Cpd 306] had an IC50 of 0.007 µM. Further, the “% Inh @ 0.2 μM” value under setting [2] is listed as 102%. In addition, under “canine TRPM8 HEK293, icilin”, the inhibition at 0.2 µM amounted to 101%.

Take `COC(=O)c1cc(C(Nc2ccccc2F)C(=O)N2CCCC2c2ccccc2F)ccc1Cl` (mixture of isomers) [Cpd 309]: the midpoint of inhibition, the IC50, lay at 0.013 µM. Where the note is “canine TRPM8 HEK293, icilin”, the “% Inh @ 0.2 μM” value is reported as 102%.

Take `O=C(O)c1cccc(-c2ccc(C(Nc3ccccc3F)C(=O)N3CCCC3c3ccccc3F)cc2)c1` (mixture of isomers) [Cpd 310]: the “% Inh @ 0.2 μM” value (canine TRPM8 HEK293, icilin) worked out at 41%.

For the compound `O=C(C(Nc1ccccc1F)c1ccc(N2CCCCC2)nc1)N1CCC[C@H]1c1ccccc1F` (mixture of isomers) [Cpd 334, 2-(2-Fluoro-phenylamino)-1-[(2S)-2-(2-fluoro-phenyl)-pyrrolidin-1-yl]-2-(3,4,5,6-tetrahydro-2H-[1,2′]bipyridinyl-5′-yl)-ethanone], the IC50 stood at 0.005 µM. In addition, where the note is “canine TRPM8 HEK293, icilin”, the inhibition at 0.2 µM was found to be 101%.

Take `COc1ccccc1[C@@H]1CCCN1C(=O)C(Nc1ccccc1F)c1ccc(N2CCCCC2)nc1` (mixture of isomers) [Cpd 335]: the IC50 stood at 0.026 µM. Also, the inhibition at 0.2 µM (canine TRPM8 HEK293, icilin) came out at 101%.

For the compound `O=C(C(c1ccc(C(F)(F)F)cc1)N1CCCc2ccccc21)N1CCCC1c1cccnc1` (mixture of isomers) [Cpd 336], the “% Inh @ 0.2 μM” value (canine TRPM8 HEK293, icilin) is on record as 43%.

For `O=C(O)c1ccc(-c2ccc(C(Nc3ccccc3F)C(=O)N3CCCC3c3ccccc3F)cc2)cc1` (mixture of isomers) [Cpd 337], the IC50 was 0.056 µM. The “% Inh @ 0.2 μM” value under setting [2] is given as 91%.

`COC(=O)c1cccc([C@@H]2CCCN2C(=O)C(Nc2ccccc2F)c2ccc(C(F)(F)F)cc2)c1` (mixture of isomers) [Cpd 347]: the IC50 was 0.04 µM. Also, the inhibition at 0.2 µM (canine TRPM8 HEK293, icilin) is 99%.

`CN(C)c1cccc([C@H]2CCCN2C(=O)C(Nc2ccccc2F)c2ccc(C(F)(F)F)cc2)c1` (mixture of isomers) [Cpd 348] showed an IC50 of 0.022 µM. Moreover, the inhibition at 0.2 µM (canine TRPM8 HEK293, icilin) was determined as 100%.

Compound `O=C(O)c1cccc([C@@H]2CCCN2C(=O)C(Nc2ccccc2F)c2ccc(C(F)(F)F)cc2)c1` (mixture of isomers) [Cpd 349, 3-{(1S)-1-[2-(2-Fluoro-phenylamino)-2-(4-trifluoromethyl-phenyl)-acetyl]-pyrrolidin-2-yl}-benzoic acid] showed an IC50 of 0.033 µM. The inhibition at 0.2 µM (canine TRPM8 HEK293, icilin) came to 100%.

Turning to `CC(C)(C)c1ccc(C(Nc2ccccc2F)C(=O)N2CCC[C@H]2c2ccccc2F)cn1` (mixture of isomers) [Cpd 355], the midpoint of inhibition, the IC50, lay at 0.005 µM. In addition, the inhibition at 0.2 µM (canine TRPM8 HEK293, icilin) was 100%.

`O=C(C(Nc1ccccc1F)c1ccc(N2CCOCC2)nc1)N1CCC[C@H]1c1ccccc1F` (mixture of isomers) [Cpd 358] returned a concentration for half-maximal inhibition (IC50) of 0.008 µM. Under “canine TRPM8 HEK293, icilin”, the inhibition at 0.2 µM was 100%.

Consider `O=C(C(Nc1ccccc1)c1ccccc1Cl)N1CCCC1c1ccccc1Cl` (mixture of isomers) [Cpd 362], for which the “% Inh @ 0.5 μM” value (canine TRPM8 HEK293, icilin) was found to be 21.91%.

Turning to `O=C(C(Nc1ccccc1)c1ccc(C(F)(F)F)cc1)N1CCCC1c1ccccc1Cl` (racemic) [Cpd 16], the IC50 amounted to 0.0216 µM. Moreover, for the setting “HEK293, 1 μM compound, canine TRPM8 HEK293, icilin”, the inhibition at 1 µM was 103%.

Turning to `Cc1cccc(C)c1NC(C(=O)N1CCc2ccccc21)c1ccc(C(F)(F)F)cc1` (racemic) [Cpd 35], the “% Inh @ 0.5 μM” value (canine TRPM8 HEK293, icilin) amounted to 72.417%.

As to `O=C(C(Nc1ccccc1Cl)c1ccc(C(F)(F)F)cc1)N1CCc2ccccc21` (racemic) [Cpd 37], the “% Inh @ 0.5 μM” value (canine TRPM8 HEK293, icilin) is reported as 49.878%.

As to `O=C(C(Nc1cccc(Cl)c1)c1ccc(C(F)(F)F)cc1)N1CCc2ccccc21` (racemic) [Cpd 38], the “% Inh @ 0.5 μM” value (canine TRPM8 HEK293, icilin) worked out at 63.009%.

Regarding `O=C(C(Nc1ccc(Cl)cc1)c1ccc(C(F)(F)F)cc1)N1CCc2ccccc21` (racemic) [Cpd 39], the “% Inh @ 0.5 μM” value (canine TRPM8 HEK293, icilin) was 73.007%.
